Tested on: reconstructed pigmented Episkin model
Assay: Depigmenting effect by topical application on the reconstructed pigmented Episkin model; melanin quantified by image analysis of Fontana-Masson stained sections
Format: cell-based
Details: DMSO control 569.02
Description: The results of the evaluation are compared to those of the solvent (DMSO) control and of a reference whitening active agent (Lucinol).
The histological quality of the epidermis after treatment was evaluated on the HES-stained histological section in order to determine the effect of the treatment on the epidermis.
The melanocyte physiology was also evaluated in order to detect melanocyte cytotoxicity.
The melanin present in the PRE is stained on the histological slide (Fontana-Masson staining) and then quantified by image analysis.
Each epidermis slide is digitized using Nanozoomer®.
For each epidermis, about 10˜15 images are extracted (white light, magnification ×20).
The area occupied by melanin is quantified using the Histolab® software.
Two parameters, namely graphic comparison (box-plot) and p value significance (Mann-Whitney U test), were applied to the interpretation of the statistical results.
Up to 6 repetitions were calculated for each treatment group.
The statistical significance between the test groups and the corresponding solvent controls was determined using the non-parametric Mann-Whitney U test (n=6).
The statistical significance is defined if the p value is less than 0.05. […]
The area occupied by melanin is quantified using the Histolab® software and is represented by the mean pixel number per image. […]

CCCCc1ccc(O)cc1O [Lucinol]
Mean pixel number/image (area occupied by melanin) (300 μM): 394.69
Mean pixel number/image (area occupied by melanin) (500 μM): 467.76

— patent publication US12653772B2, “Use of a rosebush extract as depigmenting active agent” (L'OREAL, priority 2020, dated 2026)
